Measurements reported in the NIST ThermoML archive (doi:10.1016/j.tca.2012.03.018).
Numbers after ± are expanded uncertainties. One block for each compound: values may come before it.

Assay: molar enthalpy of vaporization or sublimation
Conditions: Liquid

Structure (SMILES): CCn1cc[n+](C)c1.O=S(=O)([N-]S(=O)(=O)C(F)(F)F)C(F)(F)F
molar enthalpy (525 K): 110 ± 3 kJ/mol

Structure (SMILES): CCCCOC(=O)c1ccccc1C(=O)OCCCC [dibutyl phthalate]
molar enthalpy (393 K): 84 ± 1.6 kJ/mol

Structure (SMILES): CCCCCCCCCCCCCCCCCC(=O)OCC [ethyl octadecanoate]
molar enthalpy (373 K): 92.2 ± 1.4 kJ/mol | molar enthalpy (383.5 K, Transpiration): 93.5 ± 1.4 kJ/mol

Results, then the compound that gave them:

molar enthalpy (333.5 K, Transpiration): 74.9 ± 0.8 kJ/mol | molar enthalpy (353 K): 74.5 ± 1.6 kJ/mol
Structure (SMILES): CCCCCCCCCCCCCCCC [hexadecane]

molar enthalpy (353 K): 90.2 ± 1 kJ/mol
Structure (SMILES): CCCCCCCCCCCCCCCCCC(=O)OC [methyl octadecanoate]
